Source: paper PMC8185074, “Anchor extension: a structure-guided approach to design cyclic peptides targeting enzyme active sites” (Nature Communications, 2021)
Peptide text beside a SMILES is read from it.

Columns and labels:
Format in all cases: biochemical
HDAC1 = biological target: T1, HDAC1 (Homo sapiens, UniProt Q13547); assay: HDAC1 inhibition, full IC50 measurement (Reaction Biology; fluorogenic p53 peptide RHKK(Ac)AMC); conditions: t1/t2 replicates
T1 construct: purchased Reaction Biology Corporation (assay run by the CRO)
Summary of the method: (§1)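 Inhibitory peptides were acoustically dispensed with enzyme, then substrate added; 1 h at 30 °C. Developer stopped reaction; plateau endpoint fluorescence (360/460 nm) gave IC50.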

HDAC6 = biological target: T2, HDAC6 (Homo sapiens, UniProt Q9UBN7); assay: HDAC6 inhibition, full IC50 measurement (Reaction Biology; fluorogenic p53 peptide RHKK(Ac)AMC)
T2 construct: purchased Reaction Biology Corporation (assay run by the CRO)
T2 sequence (Q9UBN7 1-1215): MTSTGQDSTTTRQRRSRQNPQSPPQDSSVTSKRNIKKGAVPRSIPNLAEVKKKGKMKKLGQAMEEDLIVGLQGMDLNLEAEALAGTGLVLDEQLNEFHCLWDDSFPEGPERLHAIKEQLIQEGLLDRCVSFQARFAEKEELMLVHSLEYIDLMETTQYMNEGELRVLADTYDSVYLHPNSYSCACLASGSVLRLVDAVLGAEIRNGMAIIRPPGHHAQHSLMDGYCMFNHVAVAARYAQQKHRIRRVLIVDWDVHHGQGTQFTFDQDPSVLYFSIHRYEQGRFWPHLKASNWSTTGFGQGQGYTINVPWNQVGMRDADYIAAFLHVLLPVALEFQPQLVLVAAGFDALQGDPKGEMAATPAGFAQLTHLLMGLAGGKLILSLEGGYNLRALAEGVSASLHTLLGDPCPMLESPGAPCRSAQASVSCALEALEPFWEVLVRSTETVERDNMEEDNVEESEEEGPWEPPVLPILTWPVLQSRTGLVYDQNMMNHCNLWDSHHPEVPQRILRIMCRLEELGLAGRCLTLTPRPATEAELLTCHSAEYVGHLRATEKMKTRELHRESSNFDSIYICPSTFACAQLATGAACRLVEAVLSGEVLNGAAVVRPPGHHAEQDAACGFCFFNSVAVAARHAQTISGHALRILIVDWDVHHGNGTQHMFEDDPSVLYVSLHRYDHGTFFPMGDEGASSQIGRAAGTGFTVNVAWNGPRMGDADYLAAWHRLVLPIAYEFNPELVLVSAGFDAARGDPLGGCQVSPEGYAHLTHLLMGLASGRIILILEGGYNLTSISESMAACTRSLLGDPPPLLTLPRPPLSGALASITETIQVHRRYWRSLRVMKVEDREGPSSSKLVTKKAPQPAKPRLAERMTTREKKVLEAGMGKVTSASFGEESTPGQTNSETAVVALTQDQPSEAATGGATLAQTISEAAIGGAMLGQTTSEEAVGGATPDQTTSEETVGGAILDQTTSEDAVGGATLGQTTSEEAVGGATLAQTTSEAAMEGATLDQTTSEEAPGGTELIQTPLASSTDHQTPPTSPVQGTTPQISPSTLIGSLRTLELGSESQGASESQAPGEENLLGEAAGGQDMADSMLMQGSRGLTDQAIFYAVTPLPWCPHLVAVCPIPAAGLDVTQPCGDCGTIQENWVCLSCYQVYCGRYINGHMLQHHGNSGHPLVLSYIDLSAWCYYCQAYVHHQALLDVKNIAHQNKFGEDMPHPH
Summary of the method: as §1

HDAC3 = biological target: T3, HDAC3 (Homo sapiens, UniProt O15379); assay: HDAC3 inhibition, full IC50 measurement (Reaction Biology; fluorogenic p53 peptide RHKK(Ac)AMC)
T3 construct: purchased Reaction Biology Corporation (assay run by the CRO)
Summary of the method: as §1

T3 sequence (O15379 whole entry): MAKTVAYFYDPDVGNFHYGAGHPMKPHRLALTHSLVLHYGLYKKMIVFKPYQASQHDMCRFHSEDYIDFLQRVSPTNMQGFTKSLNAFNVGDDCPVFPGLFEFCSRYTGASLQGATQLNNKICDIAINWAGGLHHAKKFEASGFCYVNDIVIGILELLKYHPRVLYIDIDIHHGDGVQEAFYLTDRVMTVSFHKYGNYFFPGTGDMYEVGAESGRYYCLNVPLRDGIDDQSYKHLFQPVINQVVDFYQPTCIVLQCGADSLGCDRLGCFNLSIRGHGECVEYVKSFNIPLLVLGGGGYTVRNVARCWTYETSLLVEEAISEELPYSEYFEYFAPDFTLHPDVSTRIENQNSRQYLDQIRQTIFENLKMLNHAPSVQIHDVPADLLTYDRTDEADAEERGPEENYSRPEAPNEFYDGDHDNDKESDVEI
T3 sequence (Q9Y618 395-489 partner limits assumed): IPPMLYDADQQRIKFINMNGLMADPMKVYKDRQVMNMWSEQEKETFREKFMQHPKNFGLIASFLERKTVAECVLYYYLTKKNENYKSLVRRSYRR
T1 sequence (Q13547 whole entry): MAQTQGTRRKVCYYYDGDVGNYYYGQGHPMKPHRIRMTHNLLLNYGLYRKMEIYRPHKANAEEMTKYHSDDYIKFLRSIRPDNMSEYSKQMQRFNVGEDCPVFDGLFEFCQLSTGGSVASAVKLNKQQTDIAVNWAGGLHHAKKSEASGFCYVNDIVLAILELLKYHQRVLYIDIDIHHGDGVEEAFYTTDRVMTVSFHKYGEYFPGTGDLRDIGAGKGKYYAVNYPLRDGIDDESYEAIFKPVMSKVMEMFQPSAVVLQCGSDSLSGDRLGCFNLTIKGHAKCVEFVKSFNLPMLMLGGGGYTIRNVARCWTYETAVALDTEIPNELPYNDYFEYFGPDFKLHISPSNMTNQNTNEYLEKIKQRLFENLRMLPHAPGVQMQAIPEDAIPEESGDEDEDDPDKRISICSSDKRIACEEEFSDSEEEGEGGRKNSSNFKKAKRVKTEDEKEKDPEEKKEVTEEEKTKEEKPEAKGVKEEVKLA

## C[C@H](O)[C@H]1NC(=O)[C@H](Cc2c[nH]c3ccccc23)NC(=O)[C@H](CCCCCS)NC(=O)[C@H](CCCCN)NC(=O)[C@@H](CC(=O)O)NC(=O)[C@@H](CCCCN)NC(=O)[C@@H](CO)NC(=O)[C@H](CC(N)=O)NC(=O)[C@H](CC(=O)O)NC1=O [des2.1.0, SHA-Trp-dThr-Asp-Asn-dSer-dLys-dAsp-Lys] (HELM PEPTIDE1{D.N.[dS].[dK].[dD].K.[O=C([C@H](CCCCCS)N[*:1])[*:2]].W.[dT]}$PEPTIDE1,PEPTIDE1,1:R1-9:R2$$$V2.0)
HDAC1; peptide conc. 1.00E-05 M, listed as des2.1.0_t1
  HDAC1 activity raw data (signal): 2361
HDAC1; peptide conc. 1.00E-05 M, listed as des2.1.0_t2
  HDAC1 activity raw data (signal): -1067
HDAC1; peptide conc. 1.11E-06 M, listed as des2.1.0_t1
  HDAC1 activity raw data (signal): 35066
HDAC1; peptide conc. 1.11E-06 M, listed as des2.1.0_t2
  HDAC1 activity raw data (signal): 30452
HDAC1; peptide conc. 1.23E-07 M, listed as des2.1.0_t1
  HDAC1 activity raw data (signal): 229823
HDAC1; peptide conc. 1.23E-07 M, listed as des2.1.0_t2
  HDAC1 activity raw data (signal): 221730
HDAC1; peptide conc. 1.37E-08 M, listed as des2.1.0_t1
  HDAC1 activity raw data (signal): 719453
HDAC1; peptide conc. 1.37E-08 M, listed as des2.1.0_t2
  HDAC1 activity raw data (signal): 647364
HDAC1; peptide conc. 1.52E-09 M, listed as des2.1.0_t1
  HDAC1 activity raw data (signal): 1054522
HDAC1; peptide conc. 1.52E-09 M, listed as des2.1.0_t2
  HDAC1 activity raw data (signal): 936834
HDAC1; peptide conc. 3.33E-06 M, listed as des2.1.0_t1
  HDAC1 activity raw data (signal): 10147
HDAC1; peptide conc. 3.33E-06 M, listed as des2.1.0_t2
  HDAC1 activity raw data (signal): 8024
HDAC1; peptide conc. 3.70E-07 M, listed as des2.1.0_t1
  HDAC1 activity raw data (signal): 106445
HDAC1; peptide conc. 3.70E-07 M, listed as des2.1.0_t2
  HDAC1 activity raw data (signal): 96156
HDAC1; peptide conc. 4.12E-08 M, listed as des2.1.0_t1
  HDAC1 activity raw data (signal): 447049
HDAC1; peptide conc. 4.12E-08 M, listed as des2.1.0_t2
  HDAC1 activity raw data (signal): 424224
HDAC1; peptide conc. 4.57E-09 M, listed as des2.1.0_t1
  HDAC1 activity raw data (signal): 905513
HDAC1; peptide conc. 4.57E-09 M, listed as des2.1.0_t2
  HDAC1 activity raw data (signal): 862794
HDAC1; peptide conc. 5.08E-10 M, listed as des2.1.0_t1
  HDAC1 activity raw data (signal): 1056262
HDAC1; peptide conc. 5.08E-10 M, listed as des2.1.0_t2
  HDAC1 activity raw data (signal): 1080293
HDAC6; Conc. 1.00E-05 M, t1
  HDAC6 activity raw data (signal): 11243
HDAC6; Conc. 1.00E-05 M, t2
  HDAC6 activity raw data (signal): 1739
HDAC6; Conc. 1.11E-06 M, t1
  HDAC6 activity raw data (signal): 28172
HDAC6; Conc. 1.11E-06 M, t2
  HDAC6 activity raw data (signal): 21097
HDAC6; Conc. 1.23E-07 M, t1
  HDAC6 activity raw data (signal): 158713
HDAC6; Conc. 1.23E-07 M, t2
  HDAC6 activity raw data (signal): 131097
HDAC6; Conc. 1.37E-08 M, t1
  HDAC6 activity raw data (signal): 435775
HDAC6; Conc. 1.37E-08 M, t2
  HDAC6 activity raw data (signal): 375237
HDAC6; Conc. 1.52E-09 M, t1
  HDAC6 activity raw data (signal): 580209
HDAC6; Conc. 1.52E-09 M, t2
  HDAC6 activity raw data (signal): 526073
HDAC6; Conc. 3.33E-06 M, t1
  HDAC6 activity raw data (signal): 12962
HDAC6; Conc. 3.33E-06 M, t2
  HDAC6 activity raw data (signal): 9723
HDAC6; Conc. 3.70E-07 M, t1
  HDAC6 activity raw data (signal): 70613
HDAC6; Conc. 3.70E-07 M, t2
  HDAC6 activity raw data (signal): 63583
HDAC6; Conc. 4.12E-08 M, t1
  HDAC6 activity raw data (signal): 283586
HDAC6; Conc. 4.12E-08 M, t2
  HDAC6 activity raw data (signal): 230477
HDAC6; Conc. 4.57E-09 M, t1
  HDAC6 activity raw data (signal): 537641
HDAC6; Conc. 4.57E-09 M, t2
  HDAC6 activity raw data (signal): 486475
HDAC6; Conc. 5.08E-10 M, t1
  HDAC6 activity raw data (signal): 609077
HDAC6; Conc. 5.08E-10 M, t2
  HDAC6 activity raw data (signal): 536924
HDAC3; Conc. 1.00E-05 M, t1
  HDAC3 activity raw data (signal): 14719
HDAC3; Conc. 1.00E-05 M, t2
  HDAC3 activity raw data (signal): 13801
HDAC3; Conc. 1.11E-06 M, t1
  HDAC3 activity raw data (signal): 92063
HDAC3; Conc. 1.11E-06 M, t2
  HDAC3 activity raw data (signal): 96957
HDAC3; Conc. 1.23E-07 M, t1
  HDAC3 activity raw data (signal): 462933
HDAC3; Conc. 1.23E-07 M, t2
  HDAC3 activity raw data (signal): 478168
HDAC3; Conc. 1.37E-08 M, t1
  HDAC3 activity raw data (signal): 1054714
HDAC3; Conc. 1.37E-08 M, t2
  HDAC3 activity raw data (signal): 1114131
HDAC3; Conc. 1.52E-09 M, t1
  HDAC3 activity raw data (signal): 1368847
HDAC3; Conc. 1.52E-09 M, t2
  HDAC3 activity raw data (signal): 1246343
HDAC3; Conc. 3.33E-06 M, t1
  HDAC3 activity raw data (signal): 35860
HDAC3; Conc. 3.33E-06 M, t2
  HDAC3 activity raw data (signal): 35981
HDAC3; Conc. 3.70E-07 M, t1
  HDAC3 activity raw data (signal): 254333
HDAC3; Conc. 3.70E-07 M, t2
  HDAC3 activity raw data (signal): 260454
HDAC3; Conc. 4.12E-08 M, t1
  HDAC3 activity raw data (signal): 754531
HDAC3; Conc. 4.12E-08 M, t2
  HDAC3 activity raw data (signal): 801621
HDAC3; Conc. 4.57E-09 M, t1
  HDAC3 activity raw data (signal): 1235523
HDAC3; Conc. 4.57E-09 M, t2
  HDAC3 activity raw data (signal): 1319114
HDAC3; Conc. 5.08E-10 M, t1
  HDAC3 activity raw data (signal): 1390666
HDAC3; Conc. 5.08E-10 M, t2
  HDAC3 activity raw data (signal): 1409656
